The values below come from publication PMC4207403, “Docking Studies and Biological Activity of Fosinopril Analogs” (International Journal of Medicinal Chemistry, 2014).

Molecules are shown by their SMILES.

Data set [1] concerns the target T1, angiotensin-I converting enzyme (ACE) (Rattus norvegicus, UniProt P47820).
T1 construct: The reaction was started by the addition of 40 μL rat lung extract; from tissue; host or cells: rat lung extract
T1 sequence (P47820 36-1313): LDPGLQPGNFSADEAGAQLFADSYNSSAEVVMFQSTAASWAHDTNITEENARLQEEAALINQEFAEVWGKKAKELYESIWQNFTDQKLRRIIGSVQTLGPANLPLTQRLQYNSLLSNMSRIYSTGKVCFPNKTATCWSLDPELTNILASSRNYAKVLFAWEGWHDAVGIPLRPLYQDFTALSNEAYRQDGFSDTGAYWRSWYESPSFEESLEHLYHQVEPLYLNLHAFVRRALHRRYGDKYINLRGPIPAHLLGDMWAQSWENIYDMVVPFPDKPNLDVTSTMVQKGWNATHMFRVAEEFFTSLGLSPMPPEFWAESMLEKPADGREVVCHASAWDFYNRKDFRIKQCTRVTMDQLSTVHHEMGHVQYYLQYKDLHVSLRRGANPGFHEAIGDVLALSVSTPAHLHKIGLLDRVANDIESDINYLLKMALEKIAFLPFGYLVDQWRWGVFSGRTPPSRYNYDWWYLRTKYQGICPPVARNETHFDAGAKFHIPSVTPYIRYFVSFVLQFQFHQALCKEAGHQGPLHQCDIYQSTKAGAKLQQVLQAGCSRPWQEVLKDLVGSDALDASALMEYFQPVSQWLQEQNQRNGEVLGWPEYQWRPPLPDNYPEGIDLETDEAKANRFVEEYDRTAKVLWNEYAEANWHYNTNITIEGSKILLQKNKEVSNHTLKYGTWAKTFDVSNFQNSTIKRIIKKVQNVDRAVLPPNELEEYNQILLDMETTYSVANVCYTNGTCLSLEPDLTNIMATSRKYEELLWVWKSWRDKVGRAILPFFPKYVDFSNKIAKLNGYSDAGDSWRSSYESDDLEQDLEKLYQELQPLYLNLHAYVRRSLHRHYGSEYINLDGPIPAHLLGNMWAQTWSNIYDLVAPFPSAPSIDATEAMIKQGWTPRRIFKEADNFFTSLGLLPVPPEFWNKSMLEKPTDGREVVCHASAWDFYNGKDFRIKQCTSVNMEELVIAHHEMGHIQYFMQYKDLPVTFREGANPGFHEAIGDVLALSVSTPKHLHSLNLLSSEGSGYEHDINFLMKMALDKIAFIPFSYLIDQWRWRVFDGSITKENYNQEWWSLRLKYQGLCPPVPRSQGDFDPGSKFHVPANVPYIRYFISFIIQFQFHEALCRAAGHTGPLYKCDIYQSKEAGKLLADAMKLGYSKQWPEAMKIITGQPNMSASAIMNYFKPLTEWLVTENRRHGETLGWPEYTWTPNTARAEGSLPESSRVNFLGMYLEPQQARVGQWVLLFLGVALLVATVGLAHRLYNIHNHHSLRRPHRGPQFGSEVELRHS
The data set is described as follows: In vitro angiotensin-I converting enzyme inhibitory activity, spectrophotometric assay with rat lung extract. It counts as biochemical. Conditions: for inhibition at 0.0002 µM: 0.2 nM; for inhibition at 0.0004 µM: 0.4 nM; for inhibition at 0.0006 µM: 0.6 nM; for inhibition at 0.0008 µM: 0.8 nM; for inhibition at 0.001 µM: 1 nM; for IC50: ACE inhibition, rat lung extract. The protocol:
This method is based on the cleavage of the substrate hippuryl-glycyl-glycine by ACE and subsequent reaction with trinitrobenzenesulfonic acid to form 2,4,6-trinitrophenyl-glycyl-glycine. The method relies on spectrophotometric determination of hippuric acid. It involves a colorimetric reaction of hippuric acid with benzene sulfonyl chloride.
The assay system consisted of 200 μL of substrate solution, water, and drug solution in a volume of 0.25 mL. The reaction was started by the addition of 40 μL rat lung extract. After 30 minutes of incubation at 37°C, the reaction was stopped by adding 2 mL of stop solution (1.195 g HEPES and 0.0465 g of EDTA were dissolved in 40 mL distilled water. The pH was adjusted to 9.0 with 1 mol/lit sodium hydroxide and diluted to 50 mL with distilled water). Then 0.5 mL distilled water and 1.0 mL colour reagent were added, mixed vigorously, left for 5 min, and centrifuged at 3000–4000 rpm for 10 minutes at room temperature to remove any precipitate. The corresponding enzyme inhibitors blanks were assayed in the same manner except for adding the stop solution before the lung extract. The absorbance of the yellow product of the reaction between liberated hippurate and cyanuric chloride was measured spectrophotometrically at 405 nm against distilled water as blank.Controls without drug were run simultaneously in all cases. “One inhibitory unit is the amount of inhibitor that suppressed the ACE activity by one unit.”

The subject of a further data set is ACE. The note with it: background statement; cited from earlier work.
The conditions of data set [2]: background statement; cited from earlier work.
Setting [3] is: read-out: Percent inhibition of ACE.

By inhibition is commonly meant how much of the control response was suppressed. One may read the IC50 as the concentration that gives 50% inhibition. Lower therefore signals higher potency. As to `O=C(O)C1Cc2ccccc2CN1C(=O)CP(=O)(O)CCCCc1ccccc1` (stereo not shown) [Analog A2], the inhibition at 10 pM in data set [1] (0.01 nM, read-out: Percent inhibition of ACE) came out at 44.7 ± 3.85%. The inhibition at 20 pM in data set [1] (0.02 nM, read-out: Percent inhibition of ACE) was determined as 53.2 ± 5.73%. Moreover, in data set [1] (setting [3]), the inhibition at 0.0002 µM was 75.1 ± 4.66%, the inhibition at 0.0004 µM was 77.8 ± 3.21%, the inhibition at 0.0006 µM came out at 81.7 ± 6.09% and the inhibition at 0.0008 µM worked out at 84 ± 5.11%. Further, the inhibition at 0.001 µM in data set [1] (setting [3]) turned out to be 84.5 ± 4.52%. In data set [1], this compound returned an IC50 of 0.017 ± 0.009 nM. Also, the “ACE inhibition activity, in words” value in data set [1] (compared with other analogs and Fosinopril) is listed as “highest ACE inhibition activity”.

With `O=C(O)[C@@H]1C[C@@H](C2CCCCC2)CN1C(=O)CP(=O)(O)CCCCc1ccccc1` [Fosinoprilat], the “Potency relative to other ACE inhibitors” value in the data set with ACE was “more potent than captopril but less potent than enalaprilat”. For the same compound, in data set [2], the Bioavailability result is given as “poor bioavailability”.

Regarding `C[C@H](N[C@@H](CCc1ccccc1)C(=O)O)C(=O)N1CCC[C@H]1C(=O)O` [enalaprilat], the Bioavailability entry in data set [2] is “poor bioavailability”.

With `CCC(=O)O[C@@H](O[P@](=O)(CCCCc1ccccc1)CC(=O)N1C[C@H](C2CCCCC2)C[C@H]1C(=O)O)C(C)C` [Fosinopril], the inhibition at 0.0001 µM in data set [1] (0.1 nM, read-out: Percent inhibition of ACE) stood at 44.1 ± 4.35%. In data set [1] (setting [3]), the inhibition at 0.0002 µM is 63 ± 6.01%, the inhibition at 0.0004 µM is 68.7 ± 3.99%, the inhibition at 0.0006 µM is 73 ± 4.76% and the inhibition at 0.0008 µM came to 88.2 ± 5.2%. For the same compound, in data set [1] (setting [3]), the inhibition at 0.001 µM worked out at 89.1 ± 3.82%. The compound also had an IC50 in data set [1] of 0.143 ± 0.012 nM.
